Experimental data taken from US10987349B2, “Antitumor agent and bromodomain inhibitor” (FUJIFILM Corporation, priority 2016, dated 2021).

Columns and labels:
BRD2 BD1 = molecular target: T1, BRD2 BD1 (Homo sapiens, UniProt P25440); test: Binding assay, BRD2 BD1 to acetylated histone H4 Peptide-Biotin (EPIgeneous Binding Domain Kit A); settings: for inhibition at 0.3 µM: test compound at 300 nmol/L, read-out: Binding inhibition percentage BRD2 BD1
T1 construct: BRD2 BD1, BRD3 BD1 and BRD4 BD1 (Cisbio); purchased Cisbio
T1 sequence (P25440 74-180 limits assumed): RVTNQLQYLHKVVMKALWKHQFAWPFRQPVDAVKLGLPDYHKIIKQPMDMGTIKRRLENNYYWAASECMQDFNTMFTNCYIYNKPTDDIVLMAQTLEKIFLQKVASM
In short: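 HTRF competition: bromodomain protein (added at 20 nmol/L) and biotinylated tetra-acetyl H4(1-25) peptide (added at 25 nmol/L) were incubated with compound, streptavidin-d2 and anti-GST Eu cryptate for 20 h at room temperature. Inhibition came from the 665/620 nm ratio relative to DMSO; IC50 by four-parameter fit; some compounds were tested only at 300 nmol/L final.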

[1] = tested on: human lung adenocarcinoma cell line A549; test: Cell growth test (Cell Titer Glo) A549; format: cell-based; settings: 3 to 5 days
Description: (§1) The human undifferentiated thymoma cell line Ty-82 (JCRB), the human acute myeloid leukemia cell lines MV4-11 (ATCC), MOLM-13 (ATCC) and RS4-11 (ATCC), the human lymphoma cell line Raji (JCRB), the human cervical epidermoid carcinoma cell line Hela (JCRB), the human lung adenocarcinoma cell line A549 (ATCC), the human colon cancer cell lines DLD1 (DS Pharma) and HCT116 (DS Pharma), and the human pancreatic cancer cell line MIAPACA-2 (ATCC) were used to carry out a cell growth test.
(§2) Ty-82, MV4-11, MOLM-13, RS4-11, Raji and DLD1 were each seeded in a well plate, in which Roswell Park Memorial Institute (RPMI)-1640 medium supplemented with penicillin/streptomycin and fetal bovine serum (FBS) with a final concentration of 10% was placed. Hela was seeded in Dulbecco's Modified Eagle's medium (DMEM) supplemented with penicillin/streptomycin and FBS with a final concentration of 10%. A549 and MIAPACA-2 were each seeded in a well plate, in which Minimum Essential Medium (MEM) supplemented with penicillin/streptomycin and FBS with a final concentration of 10% was placed. […]
(§3) Thereafter, a medium containing a test compound serially diluted with DMSO, or DMSO, was added to each well of the plate, in which the cells had been seeded, and the obtained mixture was then cultured under conditions of 37° C. and 5% CO2 for 3 to 5 days. Cell Titer Glo reaction solution (Promega) was added to the culture, and the amount of luminescence was then measured using Envision plate reader (PerkinElmer). Since the amount of luminescence is in proportion to the concentration of adenosine triphosphate (ATP) in cells, the amount of luminescence was used as an indicator of the number of living cells. The growth inhibition percentage of the test compound in each concentration was calculated according to the following equation. Growth inhibition percentage (%)=(amount of luminescence in test compound−added well)/(amount of luminescence in DMSO−added well)×100 […]

[2] = tested on: human colon cancer cell line DLD1; test: Cell growth test (Cell Titer Glo) DLD1; format: cell-based; settings: DLD-1, 3 to 5 days
Description: as §1, §2, §3

[3] = tested on: human colon cancer cell line HCT116; test: Cell growth test (Cell Titer Glo) HCT116; format: cell-based; settings: HCT-116, 3 to 5 days
Description: as §1, §2, §3

[4] = tested on: human pancreatic cancer cell line MIAPACA-2; test: Cell growth test (Cell Titer Glo) MIAPACA-2; format: cell-based; settings: MIA PaCa-2, MIAPACA-2, Pancreatic cancer, 3 to 5 days
Description: as §1, §2, §3

SU-DHL-1 = test: Cell growth test (Cell Titer Blue) SU-DHL-1; format: cell-based; settings: Homo sapiens, 72 h, SU-DHL-1, Lymphoma, 3 days
Description: (§4) Moreover, the compound of Example 14 was subjected to a cell growth test using various types of cell lines.
(§5) All cell lines other than the below-noticed cells were each seeded in a well plate, in which an RPMI-1640 medium supplemented with penicillin/streptomycin and FBS with a final concentration of 10% was placed. The human prostate cancer cell line VCaP (ATCC) was seeded in a well plate, in which DMEM medium supplemented with penicillin/streptomycin and FBS with a final concentration of 10% was placed. […] Thereafter, using Enspire Multimode Plate Reader (PerkinElmer), the amount of fluorescence at an excitation wavelength of 531 nm and a fluorescence wavelength of 615 nm was measured. Since the amount of fluorescence is in proportion to the concentration of a florescent product resorufin that is converted from resazurin as a redox dye by living cells, the amount of fluorescence was used as an indicator of the number of living cells. The growth inhibition percentage of the test compound in each concentration was calculated according to the following equation. Growth inhibition percentage (%)=(amount of fluorescence in test compound−added well)/(amount of fluorescence in DMSO−added well)×100 […]

Saos-2 = test: Cell growth test (Cell Titer Blue) Saos-2; format: cell-based; settings: Homo sapiens, 72 h, Saos-2, Sarcoma, 3 days
Description: as §4, §5

Row | SMILES | IC50 (BRD2 BD1) [µM] | inhibition at 0.3 µM (BRD2 BD1) [%] | GI50 [1] [µM] | GI50 [2] [µM] | GI50 [3] [µM] | GI50 [4] [µM] | GI50 (SU-DHL-1) [µM] | GI50 (Saos-2) [µM]
1 | CCn1c(=O)cc(C2CCN(C)CC2)c2cc(C(=O)N(C)c3ccc(C)cc3)ccc21 [Example 14, 1-Ethyl-N-methyl-N-(4-methylphenyl)-4-(1-methylpiperidin-4-yl)-2-oxo-1,2-dihydroquinoline-6-carboxamide] | 0.009 | 93 | 0.665 | 0.361 | 0.241 | 1.42 | 1.26 | 2.62
2 | CCn1c(=O)cc(C2CCN(C)CC2)c2cc(C(=O)N(C)c3ccc4c(c3)CCC4)ccc21 [Example 17, N-(2,3-dihydro-1H-inden-5-yl)-1-ethyl-N-methyl-4-(1-methylpiperidin-4-yl)-2-oxo-1,2-dihydroquinoline-6-carboxamide] | 0.005 | 93 | 0.292 | 0.165 | 0.116 | 0.307 |  | 
3 | CCn1c(=O)cc(N2CCOCC2)c2cc(-n3c(-c4ccc(Cl)cc4)c[nH]c3=O)ccc21 [Example 245, 6-(5-(4-chlorophenyl)-2-oxo-2,3-dihydro-1H-imidazol-1-yl)-1-ethyl-4-(morpholin-4-yl)quinolin-2(1H)-one] | 0.061 | 79 | 1.74 | 1.34 | 0.628 | 0.76 |  | 
